This note sets out measurements from patent publication US20220096450A1, “Compounds and Methods for Treating or Preventing Heart Failure” (DREXEL UNIVERSITY, priority 2019, published 2022).

The experiment concerns the target SQOR (Homo sapiens, UniProt Q9Y6N5). The experiment is described as follows: DCIP endpoint assay of SQOR activity. It counts as biochemical. To be noted: read-out: IC50. As for the experimental part:
The assay is based on the ability of reduced CoQ1, which is produced in the SQOR reaction, to nonenzymically reduce 2,6-dichloroindiphenol (DCIP) (Δεox-red=20 mM−1 cm−1 at 600 nm). Reaction mixtures containing SQOR, substrates (H2S, sulfite, CoQ1) and various concentrations of an inhibitor are incubated in 96-well plates for 60 s. The reactions are quenched by addition of formaldehyde and N-ethylmaleimide to denature SQOR and consume unreacted H2S, respectively, and are then incubated for 10 min prior to addition of DCIP. The absorbance at 600 nm is read 30 s after DCIP addition by using a BioTek Synergy 2 plate reader.

Like-named read-outs stand apart in the source and are kept apart here.

SQOR, sequence (Q9Y6N5 whole entry): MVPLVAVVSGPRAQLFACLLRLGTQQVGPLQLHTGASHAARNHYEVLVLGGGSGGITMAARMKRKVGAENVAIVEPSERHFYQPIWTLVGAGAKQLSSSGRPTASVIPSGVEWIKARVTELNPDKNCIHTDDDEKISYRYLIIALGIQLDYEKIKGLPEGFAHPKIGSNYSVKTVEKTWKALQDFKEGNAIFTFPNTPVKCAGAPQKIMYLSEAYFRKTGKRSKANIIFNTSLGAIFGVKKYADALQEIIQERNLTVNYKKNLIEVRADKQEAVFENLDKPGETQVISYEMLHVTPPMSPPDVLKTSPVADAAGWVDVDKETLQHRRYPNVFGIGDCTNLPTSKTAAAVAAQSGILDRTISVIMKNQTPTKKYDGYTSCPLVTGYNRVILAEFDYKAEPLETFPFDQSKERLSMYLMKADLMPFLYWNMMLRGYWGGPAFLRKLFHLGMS

One may read the IC50 as the point on the concentration scale where inhibition reaches its midpoint. `O=[N+]([O-])c1cc(Cl)c(-n2cccc2)cc1N1CCCC1` [Compound 20, 1-(2-chloro-4-nitro-5-(pyrrolidin-1-yl)phenyl)-1H-pyrrole]: under “Table 1, SAR of Set A/A′ and Set B”, the half-inhibitory concentration (IC50) was determined as 460 nM.

Turning to `Cc1cc([N+](=O)[O-])c(Sc2ccc(Cl)cc2)cc1C1SCCS1` [Compound 32, 2-(5-((4-chlorophenyl)thio)-2-methyl-4-nitrophenyl)-1,3-dithiolane], the IC50 (Table 2, SAR of Set C) turned out to be 24 nM.

As to `Cc1cc([N+](=O)[O-])c(S(=O)(=O)c2ccccc2)cc1C(=O)c1ccccc1` [Compound 33, (2-methyl-4-nitro-5-(phenylsulfonyl)phenyl)(phenyl)methanone], the IC50 (Table 2, SAR of Set C) turned out to be 152 nM.

As to `COc1ccc(Sc2ccc(C)cc2)c([N+](=O)[O-])c1` [Compound 34, (4-methoxy-2-nitrophenyl)(p-tolyl)sulfane], the IC50 (Table 2, SAR of Set C) was 4900 nM.

Consider `CCOC(=O)N1CCN(CCOc2nc(-c3ncccc3C)cc(-c3ccc(F)cc3)c2C#N)CC1` [Ethyl 4-(2-(3-cyano-4-(4-fluorophenyl)-6-(3-methylpyridin-2-yl)pyridin-2-yloxy)ethyl)piperazine-1-carboxylate], for which the IC50 (Table 3) was determined as 230 nM.

In the case of `Cc1cccnc1-c1cc(-c2ccc(F)cc2)c(C#N)c(OCCN2CCN(C(=O)OC(C)C)CC2)n1` [Isopropyl 4-(2-(3-cyano-4-(4-fluorophenyl)-6-(3-methylpyridin-2-yl)pyridin-2-yloxy)ethyl)piperazine-1-carboxylate], where the note is “Table 3”, the IC50 worked out at 120 nM.

Take `COC(=O)COCCOc1nc(-c2ncccc2C)cc(-c2ccc(F)cc2)c1C#N` [Methyl 2-(3-cyano-4-(4-fluorophenyl)-6-(3-methylpyridin-2-yl)pyridin-2-yloxy) 2-(2-methoxyethoxy) acetate]: the IC50 (Table 3) is 96 nM.

Regarding `COC(=O)N1CCN(CCOc2nc(-c3ncccc3C)cc(-c3ccc(F)cc3)c2C#N)CC1` [Methyl 4-(2-(3-cyano-4-(4-fluorophenyl)-6-(3-methylpyridin-2-yl)pyridin-2-yloxy)ethyl)piperazine-1-carboxylate], under “Table 3”, the IC50 is 540 nM.

For `CC(=O)NCCOc1nc(-c2ccccn2)cc(-c2ccc(F)cc2)c1C#N` [N-(2-(3-Cyano-4-(4-fluorophenyl)-6-(pyridin-2-yl)pyridin-2-yloxy)ethyl)acetamide], the IC50 (Table 3) is 1900 nM.

With `Cc1cccnc1-c1cc(-c2ccc(F)cc2)c(C#N)c(OCCN2CCN(C(=O)OC(C)(C)C)CC2)n1` [tert-Butyl 4-(2-(3-cyano-4-(4-fluorophenyl)-6-(3-methylpyridin-2-yl)pyridin-2-yloxy)ethyl)piperazine-1-carboxylate], the IC50 (Table 3) was found to be 43 nM.
